In patent US20030109583A1 (priority 2001, published 2003):
Where two headings read alike, the source gives them in different places.

Assays:
[1] = test system: Escherichia coli ATCC 25922; experiment: mouse septicemia model; format: in vivo, ICR male mice; details: mortality recorded for 7 days, E. coli ATCC 25922 mouse septicemia
Method: (§1) Mice were inoculated intraperitoneally with 2×10^5 cfu/mouse in 0.5 ml of Brain-Heart Infusion broth supplemented with 5% mucin. The compound was tested at 40, 20, 10, 5 and 2.5 mg/kg orally (PO) or at 20, 10, 5 and 2.5 mg/kg intravenously (IV) at 1 and 5 hours after bacterial inoculation. Controls included vehicle control (0.9% NaCl, 10 ml/kg) and an antibiotic control with ampicillin. Mortality was recorded for 7 days, and an ED50 was determined by non-linear regression.

E. faecium = experiment: in vitro MIC assay; format: cell-based; details: activity = MIC<128 μg/ml
Method: (§2) The ability of negamycin or deoxynegamycin, or pharmaceutically acceptable salts, prodrugs or isomers thereof, to treat bacterial infection was measured by in vitro assay described below. The compounds were kept in DMSO at 10 mg/ml and diluted into the test medium for the assay.
(§3) The strains used for assaying negamycin include the following: Acinetobacter baumanii, Citrobacter freundii, Enterobacter aerogenes, Haemophilus influenzae, Moraxella catarrhalis, Staphylococcus aureus MRSA, Staphylococcus aureus GISA, Staphylococcus epidermis, Streptococcus pneumoniae PenR, Streptococcus pneumoniae PenS, Streptococcus pyogenes, Helicobacter pylori and E. faecium. The strains used for assaying deoxynegamycin include the following: Haemophilus influenzae, Staphylococcus aureus MRSA, Staphylococcus aureus GISA, Staphylococcus epidermis, Streptococcus pneumoniae PenR, Streptococcus pneumoniae PenS, Streptococcus pyogenes and E. facium.
(§4) (1) Liquid Medium, Nutrient Broth and Mueller-Hinton Broth with 50% Human Serum
(§5) Compounds were suspended in a DMSO solution containing 10 mg/ml of compound. The appropriate amount of compound was added to a well of the first column of a 96-well microtiter plate containing 100 μl of Nutrient Broth (NB) or Mueller-Hinton Broth with 50% human serum (MHB+HS), for S. pneumoniae the NB medium was supplemented with 3 or 5% lysed horse blood. The rest of the wells in the row had 50 μl of the same medium in each well. After adding the compound to the first well and mixing thoroughly, 50 μl was taken out, and mixed to the second well of the row. This operation was repeated until the well of column 11 was reached and, after mixing, 50 μl were discarded. […] A concentration gradient of two-fold dilution was achieved by this method. A distinct compound was added to the first column well of the next row of the microtiter plate, and the procedure was repeated until all the rows are used. The plate was then ready for inoculation.
(§6) Bacterial strains were inoculated from a frozen stock on Mueller-Hinton Agar (Difco) or Blood Agar for S. pneumoniae and grown at 35° C. overnight. Cells were suspended in sterile saline to 0.5 McFarland standard. The inoculum was diluted approximately 1:1000 in the appropriate medium to reach an inoculum size of 10^5 cfu/ml (NB, NB supplemented with 3 or 5% lysed horse blood for S. pneumoniae, or MHB+HS). The diluted cell suspension was used to inoculate the microtiter plate containing two-fold dilution of the test compound. Each well of the microtiter plate received 50 μl of the cell suspension. The final volume was 100 μl (50 μl from the inoculum and 50 μl of the medium containing the compound).
(§7) The plates were incubated at 35° C. for 16 to 20 hours, the minimal inhibitory concentration (MIC) was recorded and was defined as the lowest concentration of compound that there is no visible growth.
(§8) (2) Solid Medium, Mueller-Hinton Agar with 50% Human Serum
(§9) Compounds were suspended in a DMSO solution containing 10 mg/ml of compound. The appropriate amount of compound was added to melted Mueller-Hinton Agar with 50% human serum (MHA+HS) at 50° C. The medium has been prepared by adding human serum to a melted Mueller-Hinton Agar (MHA) at two fold the concentration. MHA+HS has 50% human serum and normal strength of MHA. The appropriate concentration of compound was added to 4 ml of melted MHA+HS, and poured in a 6 cm diameter petri dish, and the agar was allowed to solidify at room temperature. A set of petri dishes, each dish containing half the concentration of compound of the previously poured dish, was made and used to assess the MIC in solid medium.
(§10) Bacterial strains were inoculated from a frozen stock on Mueller-Hinton Agar (Difco) or Blood Agar for S. pneumoniae and grown at 35° C. overnight. Cells are suspended in sterile saline to 0.5 McFarland standard. The inoculum was diluted approximately 1:10 in sterile saline water to obtain a bacterial suspension at 10^7 cfu/ml. […]

Haemophilus influenzae = experiment: in vitro MIC assay; format: cell-based; details: activity = MIC<128 μg/ml
Method: as §2, §3, §4, §5, §6, §7, §8, §9, §10

[2] = test system: Staphylococcus aureus GISA; experiment: in vitro MIC assay; format: cell-based; details: activity = MIC<128 μg/ml
Method: as §2, §3, §4, §5, §6, §7, §8, §9, §10

[3] = test system: Staphylococcus aureus MRSA; experiment: in vitro MIC assay; format: cell-based; details: activity = MIC<128 μg/ml
Method: as §2, §3, §4, §5, §6, §7, §8, §9, §10

Staphylococcus epidermis = experiment: in vitro MIC assay; format: cell-based; details: activity = MIC<128 μg/ml
Method: as §2, §3, §4, §5, §6, §7, §8, §9, §10

[4] = test system: Streptococcus pneumoniae PenR; experiment: in vitro MIC assay; format: cell-based; details: activity = MIC<128 μg/ml
Method: as §2, §3, §4, §5, §6, §7, §8, §9, §10

[5] = test system: Streptococcus pneumoniae PenS; experiment: in vitro MIC assay; format: cell-based; details: activity = MIC<128 μg/ml
Method: as §2, §3, §4, §5, §6, §7, §8, §9, §10

Streptococcus pyogenes = experiment: in vitro MIC assay; format: cell-based; details: activity = MIC<128 μg/ml
Method: as §2, §3, §4, §5, §6, §7, §8, §9, §10

Staphylococcus aureus = details: cited from earlier work
Escherichia coli = details: cited from earlier work
Shigella flexneri = details: cited from earlier work
Salmonella typhi = details: cited from earlier work
Salmonella typhimurium = details: cited from earlier work
Salmonella enteriditis = details: cited from earlier work
Enterobacter sp. = details: cited from earlier work
Klebsiella pneumoniae = details: cited from earlier work
Serratia marcescens = details: cited from earlier work
Herellea vaginicola = details: cited from earlier work
Proteus vulgaris = details: cited from earlier work
Proteus rettgeri = details: cited from earlier work
Pseudomonas aeruginosa = details: cited from earlier work
Pseudomonas fluorescens = details: cited from earlier work
Mycobacterium smegmatis = details: cited from earlier work
Enterobacter aerogenes [6] = details: cited from earlier work
Proteius mirabilis = details: cited from earlier work
Candida albicans = details: cited from earlier work
Cryptococcus neoformans = details: cited from earlier work
Trichophyton tonsurans = details: cited from earlier work
[7] = test system: Trichophyton mentagraphytes; details: cited from earlier work
Acinetobacter baumanii = experiment: in vitro MIC assay; format: cell-based; details: Acinetobacter baumannii, activity = MIC<128 μg/ml
Method: as §2, §3, §4, §5, §6, §7, §8, §9, §10

Citrobacter freundii = experiment: in vitro MIC assay; format: cell-based; details: activity = MIC<128 μg/ml
Method: as §2, §3, §4, §5, §6, §7, §8, §9, §10

Enterobacter aerogenes [8] = experiment: in vitro MIC assay; format: cell-based; details: Klebsiella aerogenes, activity = MIC<128 μg/ml
Method: as §2, §3, §4, §5, §6, §7, §8, §9, §10

Helicobacter pylori = experiment: in vitro MIC assay; format: cell-based; details: activity = MIC<128 μg/ml
Method: as §2, §3, §4, §5, §6, §7, §8, §9, §10

Moraxella catarrhalis = experiment: in vitro MIC assay; format: cell-based; details: activity = MIC<128 μg/ml
Method: as §2, §3, §4, §5, §6, §7, §8, §9, §10

S. Aureus = experiment: ED50 against S. Aureus; format: in vivo; details: Staphylococcus aureus, route not stated
Method: as §1

[9] = kept at 37° C. for one month, cited from earlier work
Shigella sonnei = details: cited from earlier work
Salmonella typhosa = details: cited from earlier work
[10] = ATCC25922, intravenously (IV) at 1 and 5 hours after inoculation
[11] = ATCC25922, orally (PO) at 1 and 5 hours after inoculation

SMILES	ED50 [1, 10]	ED50 [1, 11]	MIC (E. faecium)	reported as effective against organism (Staphylococcus aureus)	reported as effective against organism (Escherichia coli)	reported as effective against organism (Shigella flexneri)	reported as effective against organism (Salmonella typhi)	reported as effective against organism (Salmonella typhimurium)	reported as effective against organism (Salmonella enteriditis)	reported as effective against organism (Enterobacter sp.)	reported as effective against organism (Klebsiella pneumoniae)	reported as effective against organism (Serratia marcescens)	reported as effective against organism (Herellea vaginicola)	reported as effective against organism (Proteus vulgaris)	reported as effective against organism (Proteus rettgeri)	reported as effective against organism (Pseudomonas aeruginosa)	reported as effective against organism (Pseudomonas fluorescens)	reported as effective against organism (Mycobacterium smegmatis)	further results
CC1(C)S[C@@H]2[C@H](NC(=O)[C@H](N)c3ccccc3)C(=O)N2[C@H]1C(=O)O [Ampicillin, reference compound]	6.8 mg/kg	27.6 mg/kg	–	–	–	–	–	–	–	–	–	–	–	–	–	–	–	–	–
CN(CC(=O)O)NC(=O)C[C@H](N)CCCN [Deoxynegamycin, D-3,6-diaminiohexanoic acid-2-(carboxymethyl)-2-methylhyrazide]	4.8 mg/kg	–	inactive	effective	effective	effective	effective	effective	effective	effective	effective	effective	effective	effective	effective	effective	effective	effective	MIC (Haemophilus influenzae): exhibited activity; MIC [2]: exhibited activity; MIC [3]: exhibited activity; MIC (Staphylococcus epidermis): exhibited activity; MIC [4]: exhibited activity; MIC [5]: exhibited activity; MIC (Streptococcus pyogenes): exhibited activity; reported as effective against organism (Enterobacter aerogenes [6]): effective; reported as effective against organism (Proteius mirabilis): effective; reported as effective against organism (Candida albicans): effective; reported as effective against organism (Cryptococcus neoformans): effective; reported as effective against organism (Trichophyton tonsurans): effective; reported as effective against organism [7]: effective
CN(CC(=O)O)NC(=O)C[C@H](N)C[C@@H](O)CN [Negamycin, [2-{(3R,5R)-3,6-diamino-5-hydroxyhexanoyl}-1-methylhydrazino]acetic acid]	4.1 mg/kg	15.1 mg/kg	inactive	effective	effective	effective	effective	effective	effective	effective	effective	effective	effective	effective	effective	effective	effective	effective	MIC (Acinetobacter baumanii): < 128 µg/mL; MIC (Citrobacter freundii): < 128 µg/mL; MIC (Enterobacter aerogenes [8]): < 128 µg/mL; MIC (Haemophilus influenzae; read-out: MIC): < 128 µg/mL; MIC (Helicobacter pylori): < 128 µg/mL; MIC (Moraxella catarrhalis): < 128 µg/mL; MIC ([2]; read-out: MIC): < 128 µg/mL; MIC ([3]; read-out: MIC): < 128 µg/mL; MIC (Staphylococcus epidermis; read-out: MIC): < 128 µg/mL; MIC ([4]; read-out: MIC): < 128 µg/mL; MIC ([5]; read-out: MIC): < 128 µg/mL; MIC (Streptococcus pyogenes; read-out: MIC): < 128 µg/mL; ED50 (S. Aureus): 16.8 mg/kg; activity reduced to ([9]; in 0.02N HCl aqueous solution): 50%; activity reduced to ([9]; in aqueous solution): 63%; reported as effective against organism (Shigella sonnei): effective; reported as effective against organism (Salmonella typhosa): effective
